According to paper PMC12352620, “Fragment-based discovery of dual ligand pharmacophores for lipid-sensing transcription factors for designed polypharmacology” (RSC Medicinal Chemistry, 2025):

Assays:
Format in all cases: cell-based
RXRα = molecular target: T1, RXRα (Homo sapiens, UniProt P19793); experiment: Gal4-hybrid reporter gene assay RXRα; conditions: mean ± S.E.M., n ≥ 3
T1 construct: expressed in transfected cells; host or cells: HEK293T
T1 sequence (P19793 227-458 limits assumed): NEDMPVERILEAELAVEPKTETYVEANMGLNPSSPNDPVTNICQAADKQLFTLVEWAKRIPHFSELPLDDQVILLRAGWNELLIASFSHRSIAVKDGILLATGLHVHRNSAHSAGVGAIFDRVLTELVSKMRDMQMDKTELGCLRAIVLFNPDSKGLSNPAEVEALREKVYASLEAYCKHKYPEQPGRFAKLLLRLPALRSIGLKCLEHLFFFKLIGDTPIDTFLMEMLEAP
Method: (§1) NR modulation was determined as described previously[45] in Gal4 hybrid reporter gene assays in HEK293T cells (German Collection of Microorganisms and Cell Culture GmbH, DSMZ) using pFR-Luc (Stratagene, La Jolla, CA, USA; reporter), pRL-SV40 (Promega, Madison, WI, USA; internal control) and the hybrid receptor clones pFA-CMV-hTHRα-LBD,[46] pFA-CMV-hPPARγ-LBD,[47] pFA-CMV-hFXR-LBD,[48] and pFA-CMV-hRXRα-LBD,[49] coding for the hinge region and ligand binding domain of the canonical isoform of the respective NR. Cells were cultured in Dulbecco's modified Eagle's medium (DMEM), high glucose supplemented with 10% fetal calf serum (FCS), sodium pyruvate (1 mM), penicillin (100 U mL^−1), and streptomycin (100 μg mL^−1) at 37 °C and 5% CO2 and seeded in 96-well plates (3 × 10^4 cells per well). After 24 h, medium was changed to Opti-MEM without supplements and cells were transiently transfected using Lipofectamine LTX reagent (Invitrogen, Carlsbad, CA, USA) according to the manufacturer's protocol. Five hours after transfection, cells were incubated with the test compounds in Opti-MEM supplemented with penicillin (100 U mL^−1), streptomycin (100 μg mL^−1) and 0.1% DMSO for 16 h before luciferase activity was measured using the Dual-Glo Luciferase Assay System (Promega) according to the manufacturer's protocol on a Tecan Spark luminometer (Tecan Deutschland GmbH, Crailsheim, Germany). Firefly luminescence was divided by Renilla luminescence and multiplied by 1000 resulting in relative light units (RLU) to normalize for transfection efficiency and cell growth. Fold activation was obtained by dividing the mean RLU of test compound by the mean RLU of the untreated control. All samples were tested in at least three biologically independent experiments in duplicates. For dose–response curve fitting and calculation of EC50 values, the equation “[agonist] vs. response − variable slope (four parameters)” was used in GraphPad Prism (version 7.00, GraphPad Software, La Jolla, CA, USA). For selectivity profiling, the hybrid reporter gene assay was performed with Gal4 fusion receptor plasmids for RARα, PPARα, PPARδ, VDR, CAR and LXRα. The following reference agonists were used: triiodothyronine (1 μM, THR), all-trans retinoic acid (1 μM, RAR), GW7647 (1 μM, PPARα), pioglitazone (1 μM, PPARγ), L165041 (1 μM, PPARδ), calcitriol (1 μM, VDR), CITCO (1 μM, CAR), T0901317 (1 μM, LXR), GW4064 (1 μM, FXR), bexarotene (1 μM, RXR).

PPARγ = molecular target: T2, PPARγ (Homo sapiens, UniProt P37231); experiment: Gal4-hybrid reporter gene assay PPARγ; conditions: mean ± S.E.M., n ≥ 3
T2 construct: expressed in transfected cells; host or cells: HEK293T
T2 sequence (P37231 238-503 limits assumed): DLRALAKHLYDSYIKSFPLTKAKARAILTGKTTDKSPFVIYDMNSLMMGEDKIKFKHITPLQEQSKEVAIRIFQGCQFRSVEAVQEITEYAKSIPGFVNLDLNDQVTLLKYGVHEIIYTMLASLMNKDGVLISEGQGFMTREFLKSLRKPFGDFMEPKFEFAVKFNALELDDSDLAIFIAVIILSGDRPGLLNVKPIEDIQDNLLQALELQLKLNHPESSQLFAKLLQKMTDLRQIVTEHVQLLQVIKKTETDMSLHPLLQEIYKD
Method: as §1

FXR = molecular target: T3, FXR (Homo sapiens, UniProt Q96RI1); experiment: Gal4-hybrid reporter gene assay FXR; conditions: HEK293T, Gal4-hybrid reporter; Inactive = tested 1–300 μM; mean ± S.E.M., n ≥ 3
T3 construct: expressed in transfected cells; host or cells: HEK293T
T3 sequence (Q96RI1 262-486 limits assumed): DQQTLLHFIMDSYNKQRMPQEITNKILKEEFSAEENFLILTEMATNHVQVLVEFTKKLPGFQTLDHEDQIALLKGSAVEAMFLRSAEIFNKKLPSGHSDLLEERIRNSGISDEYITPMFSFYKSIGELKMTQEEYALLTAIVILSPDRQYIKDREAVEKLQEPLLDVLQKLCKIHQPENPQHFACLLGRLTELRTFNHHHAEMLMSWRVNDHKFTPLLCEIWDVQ
Method: as §1

THRα = molecular target: T4, THRα (Homo sapiens, UniProt P10827); experiment: Gal4-hybrid reporter gene assay THRα; conditions: mean ± S.E.M., n ≥ 3
T4 construct: expressed in transfected cells; host or cells: HEK293T
T4 sequence (P10827 128-410 isoform P10827-2 limits assumed): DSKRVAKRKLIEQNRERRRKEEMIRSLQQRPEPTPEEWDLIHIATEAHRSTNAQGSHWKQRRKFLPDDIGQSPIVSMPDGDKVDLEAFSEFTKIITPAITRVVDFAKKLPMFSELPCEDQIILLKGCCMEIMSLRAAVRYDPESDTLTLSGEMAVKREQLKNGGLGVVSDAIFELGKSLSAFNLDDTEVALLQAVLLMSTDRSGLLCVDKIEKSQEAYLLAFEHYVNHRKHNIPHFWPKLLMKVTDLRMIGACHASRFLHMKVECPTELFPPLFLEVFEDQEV
Method: as §1

[1] = HEK293T, Gal4-hybrid reporter, Inactive = tested 1–300 μM
[2] = maximum reporter activation vs DMSO (0.1%) treated cells

- EC50 (RXRα; [1]): 134 ± 41 µM
- max. fold activation RXRα (RXRα; [2]): (1.9 ± 0.9-fold)
- EC50 (PPARγ; [1]): 255 ± 15 µM
- max. fold activation PPARγ (PPARγ; [2]): (4.3 ± 0.2-fold)
- EC50 FXR (FXR): Inactive
- EC50 (THRα; [1]): 92 ± 29 µM
- max. fold activation THRα (THRα; [2]): (2.7 ± 0.3-fold)
Compound: C/C(=C\C(=O)O)c1ccc(C(F)(F)F)cc1 [compound 91]
